Laboratory results taken from patent US20260263459A1, “PHTHALAZINONE GSPT1 PROTEIN DEGRADING AGENT AND USE THEREOF” (CHINA PHARMACEUTICAL UNIVERSITY, priority 2023, published 2026).

Key:
GSPT1 protein = target: T1, GSPT1 protein (Homo sapiens, UniProt P15170+Q96SW2); experiment: Degradation of GSPT1 in KG-1 cells (Western blot); assay type: cell-based; conditions: compound concentration 200 nM, 4 h incubation
T1 construct: Whole cell lysates were prepared; endogenous in cells; host or cells: KG-1 cells
Experimental: KG-1 cells were grown in an IMDM culture medium (containing 20% FBS). After centrifugation and counting, the cell concentration was adjusted. The cells were plated onto 6-well plates at 10^6 cells/well, with 1350 μL per well. 150 μL of DMSO and the test compounds of the present disclosure (compound concentration: 200 nM) were added. The plates were incubated in an incubator at 37° C. with 5% CO2 for 4 h. The cells were centrifuged, and the culture medium was discarded. PBS was added to wash the cells and then discarded. Whole cell lysates were prepared using a protease inhibitor cocktail (100×, Fude Biological), a protein phosphatase inhibitor cocktail (100×, Fude Biological), Super Nuclease (Beyotime), and a high-intensity RIPA lysis buffer (Thermo Fisher) and placed on ice for 30 min. After centrifugation, the cell debris precipitates were discarded, and the whole cell lysate supernatants were collected and transferred to new centrifuge tubes. After a BCA protein assay, samples were prepared using a 5× loading buffer (Thermo Fisher). The samples were subjected to protein electrophoresis separation in a 4-20% precast gel (SDS-PAGE gel), transferred to a PVDF membrane, blocked with 5% NFDM/TBST at room temperature for 1 h, incubated overnight with primary antibodies at 4° C., and incubated with a secondary antibody at room temperature for 2 h the next day. Signals were detected using a MINICHEMITM imaging system.
• Anti-GSPT1: Abcam ab234433 • Anti-beta actin: Fude Biological FD0060
• Anti-rabbit peroxidase-linked secondary antibody: Fude Biological FDG007
The degradation effects of the compounds on GSPT1 protein are shown in Table 1, where A represents a GSPT1 protein degradation percentage of no less than 70%, B represents a degradation percentage of less than 70% but no less than 30%, and C represents a degradation percentage of less than 30%.

KG-1 cells = experiment: Antiproliferative activity against KG-1 cells (CCK8); assay type: cell-based; conditions: Homo sapiens, 72 h incubation, CCK8 method
Experimental: KG-1 cells in the logarithmic growth phase were diluted in a culture medium (RPMI+10% FBS) and plated onto 96-well plates at 5000 cells/well, and the plates were incubated in an incubator at 37° C. with 5% CO2 for 24 h. 10 mM stock solutions of the test compounds of the present disclosure in DMSO were prepared and diluted with the culture medium to set 9 concentration gradients. 3 replicate wells were set for each concentration. After compound addition, the plates were incubated in an incubator at 37° C. with 5% CO2 for 72 h. The cell proliferation was assessed using the CCK8 method. The cell growth inhibition IC50 values of the compounds were determined using an enzyme labeling method. The IC50 values were calculated using GraphPad Prism 7 software.
The antiproliferative activity of the compounds against KG-1 cells is shown in Table 2, where A represents IC50≤30 nM, B represents 30<IC50≤300 nM, and C represents IC50>300 nM.

T1 sequence (P15170 whole entry): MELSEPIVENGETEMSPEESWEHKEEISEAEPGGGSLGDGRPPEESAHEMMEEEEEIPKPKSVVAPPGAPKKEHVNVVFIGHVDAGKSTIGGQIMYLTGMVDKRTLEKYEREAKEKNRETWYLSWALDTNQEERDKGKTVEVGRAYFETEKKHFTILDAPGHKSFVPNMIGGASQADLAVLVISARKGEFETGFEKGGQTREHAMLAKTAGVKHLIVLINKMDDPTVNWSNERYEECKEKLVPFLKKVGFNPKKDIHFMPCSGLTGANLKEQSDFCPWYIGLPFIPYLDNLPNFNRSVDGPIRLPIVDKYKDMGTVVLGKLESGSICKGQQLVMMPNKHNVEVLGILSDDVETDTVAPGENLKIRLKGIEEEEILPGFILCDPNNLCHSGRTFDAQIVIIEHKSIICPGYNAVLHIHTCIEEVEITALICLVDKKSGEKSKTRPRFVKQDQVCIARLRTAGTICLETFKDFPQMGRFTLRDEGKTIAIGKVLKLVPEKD
T1 sequence (Q96SW2 whole entry): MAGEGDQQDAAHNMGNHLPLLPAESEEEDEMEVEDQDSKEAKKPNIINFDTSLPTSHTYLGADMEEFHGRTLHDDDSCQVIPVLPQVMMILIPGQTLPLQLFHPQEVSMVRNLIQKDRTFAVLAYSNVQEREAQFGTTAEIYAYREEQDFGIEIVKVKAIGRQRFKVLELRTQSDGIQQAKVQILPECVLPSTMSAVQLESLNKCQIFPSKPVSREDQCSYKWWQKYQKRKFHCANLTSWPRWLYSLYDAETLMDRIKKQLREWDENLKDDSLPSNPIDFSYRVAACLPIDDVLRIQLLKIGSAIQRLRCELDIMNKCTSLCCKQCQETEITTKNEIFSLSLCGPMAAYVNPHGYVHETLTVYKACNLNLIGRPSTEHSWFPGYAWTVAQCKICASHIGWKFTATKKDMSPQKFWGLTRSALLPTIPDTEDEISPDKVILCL
T1 sequence (Q16531 whole entry partner): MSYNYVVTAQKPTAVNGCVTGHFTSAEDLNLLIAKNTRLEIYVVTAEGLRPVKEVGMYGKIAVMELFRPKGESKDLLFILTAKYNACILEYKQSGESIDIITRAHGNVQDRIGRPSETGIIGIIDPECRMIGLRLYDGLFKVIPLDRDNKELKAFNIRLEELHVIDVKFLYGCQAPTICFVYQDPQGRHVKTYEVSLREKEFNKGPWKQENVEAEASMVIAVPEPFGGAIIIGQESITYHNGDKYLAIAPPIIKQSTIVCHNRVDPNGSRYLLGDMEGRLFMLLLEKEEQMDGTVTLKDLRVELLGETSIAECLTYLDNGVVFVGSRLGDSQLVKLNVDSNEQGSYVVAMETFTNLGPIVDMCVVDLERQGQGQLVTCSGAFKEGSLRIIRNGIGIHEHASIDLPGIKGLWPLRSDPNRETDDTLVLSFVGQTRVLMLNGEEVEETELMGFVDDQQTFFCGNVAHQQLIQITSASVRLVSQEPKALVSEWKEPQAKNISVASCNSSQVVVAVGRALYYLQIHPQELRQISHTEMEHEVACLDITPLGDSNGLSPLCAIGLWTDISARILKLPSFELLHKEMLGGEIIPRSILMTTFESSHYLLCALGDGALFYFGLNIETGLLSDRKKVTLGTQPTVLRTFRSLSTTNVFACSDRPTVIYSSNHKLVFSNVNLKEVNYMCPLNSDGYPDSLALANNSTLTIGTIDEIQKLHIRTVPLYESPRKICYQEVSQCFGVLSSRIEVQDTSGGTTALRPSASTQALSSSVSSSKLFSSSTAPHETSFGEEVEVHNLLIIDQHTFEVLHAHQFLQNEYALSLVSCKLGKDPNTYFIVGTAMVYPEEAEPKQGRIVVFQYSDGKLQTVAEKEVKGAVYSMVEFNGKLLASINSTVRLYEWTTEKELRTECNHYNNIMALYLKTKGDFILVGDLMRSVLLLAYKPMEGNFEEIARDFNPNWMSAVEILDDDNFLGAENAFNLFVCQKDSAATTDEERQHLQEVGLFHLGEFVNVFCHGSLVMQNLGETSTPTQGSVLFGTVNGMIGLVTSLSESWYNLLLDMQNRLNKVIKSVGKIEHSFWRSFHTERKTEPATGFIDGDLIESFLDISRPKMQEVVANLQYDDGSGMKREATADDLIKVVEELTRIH

Structure (SMILES) | inhibition at 0.2 µM (GSPT1 protein) | IC50 (KG-1 cells)
COc1cccc2c1C=C(C(=O)NCc1ccc3c(=O)n(C4CCC(=O)NC4=O)ncc3c1)CO2 (stereo not drawn) [Compound T-7, N-((2-(2,6-Dioxopiperidin-3-yl)-1-oxo-1,2-dihydrophthalazin-6-yl)methyl)-5-methoxy-2H-chromene-3-carboxamide] | ≥ 70% | ≤ 30 nM
O=C1CCC(n2ncc3cc(CNC(=O)C4=Cc5cc(F)ccc5OC4)ccc3c2=O)C(=O)N1 (stereo not drawn) [Compound T-3, N-((2-(2,6-Dioxopiperidin-3-yl)-1-oxo-1,2-dihydrophthalazin-6-yl)methyl)-6-fluoro-2H-chromene-3-carboxamide] | 30 to 70% | 30 to 300 nM
O=C1CCC(n2ncc3cc(CNC(=O)C4=Cc5c(F)cccc5OC4)ccc3c2=O)C(=O)N1 (stereo not drawn) [Compound T-2, N-((2-(2,6-Dioxopiperidin-3-yl)-1-oxo-1,2-dihydrophthalazin-6-yl)methyl)-5-fluoro-2H-chromene-3-carboxamide] | ≥ 70% | ≤ 30 nM
COc1cccc2c1OCC(C(=O)NCc1ccc3c(=O)n(C4CCC(=O)NC4=O)ncc3c1)=C2 (stereo not drawn) [Compound T-6, N-((2-(2,6-Dioxopiperidin-3-yl)-1-oxo-1,2-dihydrophthalazin-6-yl)methyl)-8-methoxy-2H-chromene-3-carboxamide] | 30 to 70% | 30 to 300 nM
O=C1CCC(n2ncc3cc(CNC(=O)C4=Cc5c(cccc5C(F)(F)F)OC4)ccc3c2=O)C(=O)N1 (stereo not drawn) [Compound T-15, N-((2-(2,6-Dioxopiperidin-3-yl)-1-oxo-1,2-dihydrophthalazin-6-yl)methyl)-5-(trifluoromethyl)-2H-chromene-3-carboxamide] | ≥ 70% | ≤ 30 nM
Cc1cc2c(cc1Cl)C=C(C(=O)NCc1ccc3c(=O)n(C4CCC(=O)NC4=O)ncc3c1)CO2 (stereo not drawn) [Compound T-20, 6-Chloro-N-((2-(2,6-dioxopiperidin-3-yl)-1-oxo-1,2-dihydrophthalazin-6-yl)methyl)-7-methyl-2H-chromene-3-carboxamide] | 30 to 70% | 30 to 300 nM
O=C1CCC(n2ncc3cc(NC(=O)C4=Cc5ccccc5OC4)ccc3c2=O)C(=O)N1 (stereo not drawn) [Compound T-25, N-(2-(2,6-Dioxopiperidin-3-yl)-1-oxo-1,2-dihydrophthalazin-6-yl)-2H-chromene-3-carboxamide] | < 30% | 30 to 300 nM
O=C1CCC(n2ncc3cc(CNC(=O)C4=Cc5cccc(OC(F)(F)F)c5OC4)ccc3c2=O)C(=O)N1 (stereo not drawn) [Compound T-9, N-((2-(2,6-Dioxopiperidin-3-yl)-1-oxo-1,2-dihydrophthalazin-6-yl)methyl)-8-(trifluoromethoxy)-2H-chromene-3-carboxamide] | 30 to 70% | ≤ 30 nM
COc1ccc2c(c1)C=C(C(=O)NCc1ccc3c(=O)n(C4CCC(=O)NC4=O)ncc3c1)CO2 (stereo not drawn) [Compound T-8, N-((2-(2,6-Dioxopiperidin-3-yl)-1-oxo-1,2-dihydrophthalazin-6-yl)methyl)-6-methoxy-2H-chromene-3-carboxamide] | 30 to 70% | 30 to 300 nM
O=C1CCC(n2ncc3cc(CNC(=O)C4COc5ccccc5C4)ccc3c2=O)C(=O)N1 (stereo not drawn) [Compound T-21, N-((2-(2,6-Dioxopiperidin-3-yl)-1-oxo-1,2-dihydrophthalazin-6-yl)methyl) chromane-3-carboxamide] | 30 to 70% | 30 to 300 nM
Cc1cccc2c1OCC(C(=O)NCc1ccc3c(=O)n(C4CCC(=O)NC4=O)ncc3c1)=C2 (stereo not drawn) [Compound T-11, N-((2-(2,6-Dioxopiperidin-3-yl)-1-oxo-1,2-dihydrophthalazin-6-yl)methyl)-8-methyl-2H-chromene-3-carboxamide] | 30 to 70% | 30 to 300 nM
O=C1CCC(n2ncc3cc(CNC(=O)C4=Cc5cc(F)cc(F)c5OC4)ccc3c2=O)C(=O)N1 (stereo not drawn) [Compound T-19, N-((2-(2,6-Dioxopiperidin-3-yl)-1-oxo-1,2-dihydrophthalazin-6-yl)methyl)-6,8-difluoro-2H-chromene-3-carboxamide] | 30 to 70% | 30 to 300 nM
